Legend:
[1] = test system: islet enriched pancreatic cells; experiment: Ad-KLF4 with and without Rho-kinase inhibitor Y27632, gene expression; assay type: cell-based, human; conditions: Y27632 20 uM; up to 10 days post infection
Procedure: FIG. 11. […] A one-way ANOVA was performed with Dunnett post hoc test comparing treatment groups. […] B: Samples were fixed and permeabilised at day 6 for E-cadherin and cleaved caspase-3.
Total RNA was extracted using TRIzol® and treated with DNaseI (both Life Technologies) followed by cDNA synthesis using 1 μg of RNA per sample. qRT-PCR mixtures were prepared using SensiMix II probe kit (Bioline, London, UK) and TaqMan gene expression assays (Applied Biosystems, Paisley, UK) as per manufacturer's instructions. cDNA was amplified on Roche LightCycler 480® for 50 cycles. Samples were run in triplicate and normalised to glyceraldehyde 3-phosphate dehydrogenase (GAPDH) and/or 60S ribosomal protein L13a (RPL13a). Data was analysed using the 2^−ΔΔCT method (Brodsky et al., 1999). Statistical analysis was performed using GraphPad Prism software and the Student t test or one-way/two-way ANOVA, followed by the Dunnett post hoc test, were used as appropriate.
We next hypothesised that adjusting the cell culture environment to promote survival of newly formed epithelial cells would enhance redifferentiation.

[2] = test system: reprogrammed human exocrine pancreatic cells; experiment: RT-qPCR of cells reprogrammed (siARX) with or without zinc; assay type: cell-based; conditions: ZnCl2 10 μM; partly attributed to increased PAX4 mRNA
Procedure: FIG. 18. RT-qPCR analysis of the three main endocrine hormones insulin (INS), glucagon (GCG) and somatostatin (SST) and the transcription factors PDX1, PAX4, MAFA, NEUROD, NGN3 and NKX6.1 in untreated (N/A) or cells reprogrammed (siARX) in the absence or presence of ZnCl2 (10 μM). Expression was normalised to glyceraldehyde 3-phosphate dehydrogenase. Data are representative of triplicate experiments and represented as mean+/−standard error of the mean.
Human exocrine fractions were thawed and plated on tissue culture 9 cm^2 dishes (Greiner, Stonehouse, UK) and cultured for two days in RPMI 1640 (Gibco, Life Technologies) supplemented with 10% foetal bovine serum (FBS), 10 mM HEPES, 1 mM sodium pyruvate (all from Gibco) and 75 μM β-mercaptoethanol (Sigma Aldrich). After 48 h, the cells were incubated for another 72 h in serum free medium (SFM) prepared with RPMI 1640, insulin-transferrin-selenium (Gibco) and 1% bovine serum albumin (Sigma), supplemented with 10 μM SB431542, 2 μM Y27632, 1 μM 5-Aza-2′deoxycytidine and 10 mM sodium butyrate (all from Sigma). On the next day the cells were incubated for 4 h with the adenoviruses encoding pancreatic transcription factors PDX1, MAFA, NGN3 and PAX4. On the following day the medium was changed for SFM supplemented with 1 nM betacellulin (R&D systems, Abingdon, UK), 10 nM exendin-4 and 10 mM nicotinamide (both from Sigma). […]

[3] = test system: reprogrammed human exocrine pancreatic cells; experiment: C-peptide ELISA of cell extracts, reprogrammed (siARX) with or without ZnCl2; assay type: cell-based; conditions: ZnCl2 10 μM; p<0.01 relative to siARX
Procedure: FIG. 19. C-peptide ELISA measurements of cell extracts from untreated cells (N/A) or cells reprogrammed (siARX) in the absence or presence of ZnCl2 (10 μM). C-peptide levels were expressed level to protein content and represent […] (n=3). ***p<0.001 relative to NA and **p<0.01 relative to siARX.
Human exocrine fractions were thawed and plated on tissue culture 9 cm^2 dishes (Greiner, Stonehouse, UK) and cultured for two days in RPMI 1640 (Gibco, Life Technologies) supplemented with 10% foetal bovine serum (FBS), 10 mM HEPES, 1 mM sodium pyruvate (all from Gibco) and 75 μM β-mercaptoethanol (Sigma Aldrich). After 48 h, the cells were incubated for another 72 h in serum free medium (SFM) prepared with RPMI 1640, insulin-transferrin-selenium (Gibco) and 1% bovine serum albumin (Sigma), supplemented with 10 μM SB431542, 2 μM Y27632, 1 μM 5-Aza-2′deoxycytidine and 10 mM sodium butyrate (all from Sigma). On the next day the cells were incubated for 4 h with the adenoviruses encoding pancreatic transcription factors PDX1, MAFA, NGN3 and PAX4. On the following day the medium was changed for SFM supplemented with 1 nM betacellulin (R&D systems, Abingdon, UK), 10 nM exendin-4 and 10 mM nicotinamide (both from Sigma). The medium was changed every two days for another 6 days before harvesting. […]

Compound | gene expression, Ad-KLF4 with vs without Y27632 [1] | insulin gene expression [2] | insulin (C-peptide) protein content [3]
C[C@@H](N)[C@H]1CC[C@H](C(=O)Nc2ccncc2)CC1 [Y27632] | no significant difference |  | 
[Cl-].[Cl-].[Zn+2] [ZnCl2] |  | significant effect | stimulatory effect

— US20170175081A1, “Methods of Obtaining Islet Cells” (The University Court of the University of Aberdeen, priority 2014, published 2017)
